Measured values reported in patent US9850308B2, “Neutralization of CD95 activity blocks invasion of glioblastoma cells in vivo” (Deutsches Krebsforschungszentrum Stiftung des oeffentlichen …, priority 2006, dated 2017).
Entries after “also recorded” stand apart in the source; their conditions may differ. Residues, ends and D or L forms follow the SMILES beside them. *: point of attachment. Cbz = O=C(OCc1ccccc1)*; CH2F = FC*

How the values were obtained:
T98G cells = assay: Migration assay (collagen-coated transwell / two dimensional migration assay); type: cell-based, human; conditions: T98G cells stimulated with α-Apo-1 (2 μg/ml) or LZ-CD95L (5 ng/ml)
Description: Migration of the glioma cells in vitro was measured by the migration through Collagen 1-coated (Chemicon) transwell inserts (Falcon). 5×10^4 cells were plated in 200 μl medium onto collagen-coated (50 μg/ml) transwell inserts with 8 μm pore size. Cells were either γ-irradiated before plating or treated after plating with α-Apo1 (2 μg/ml or 0.1 μg/ml+ProteinA for cross linking), LZ-CD95L (5 ng/ml), Nok1 (50 ng)/LZ-CD95L (5 ng/ml), Nok1 (50 ng) LZ-Supernatant (SN, 5 ng/ml), CD95L (10 ng/ml) and CD95L-T34. Preferably 24 h after plating the cells were starved with basal DMEM for additional 24 h before they were treated. The number of completely migrated cells was counted at 12 h, 24 h and 36 h after treatment. In every experiment triplicates were counted for each treatment.
2.5×10^5 cells were plated onto 6 cm culture dishes 12 h prior to irradiation. […]
Knockdown experiments were performed by transient transfection with Lipofectamine 2000™ (Invitrogen Life Technologies) following the instruction manual. […] After transient transfection with the different siRNAs cells were cultured for 72 h before treated with CD95LT4 (10 ng/ml and 20 ng/ml), migration was analyzed 24 h after treatment with a two dimensional migration assay. The knockdown was controlled by quantitative real-time PCR and FACS. […] Migration was measured 24 h after treatment in a two dimensional migration assay.

GSK3β = assay: Phosphorylation (inhibition) of GSK3β, Western Blot; type: cell-based, human; conditions: T98G cells, pre-treatment before CD95 stimulation
Description: The MAPK inhibitor, PD98059 (25 μM), the PI3K inhibitor […] (25 μM) and the pancaspase inhibitor zVAD-fmk (40 μM) were purchased from Calbiochem. The ILK inhibitor (20 μM) was kindly provided from S. Dedhar. Cells were preincubated with inhibitors 30 minutes (LY 290059 and zVAD-fmk) prior to treatment with either CD95L-T4 or αApo-1. Generation of Leucinezipper-CD95L (LZCD95L) was performed as previously described^41. The blocking agents (zVAD-fmk, PD98059, LY 290059 and KP-SD1) were given 30 minutes before treatment with LZ-CD95L or αApo-1. Cells were lysed for further biochemical analysis. Protein extraction and immunoblotting was performed as previously described^41.

[1] = system: Jurkat A3 permanent human T-cell line; assay: Jurkat apoptosis assay (Caspase 3/7 activity); type: cell-based; conditions: Jurkat cells, 250 ng/ml CD95L-T4, 30 min preincubation

## COc1cccc(-c2cc(=O)c3ccccc3o2)c1N [PD98059]
T98G cells
  blockade of CD95-induced migration: did not interfere with CD95-induced migration
T98G cells; listed as PD 98059
  blockade of CD95-induced migration: did not interfere with the CD95-induced migration

## COC(=O)C[C@H](NC(=O)[C@H](C)NC(=O)[C@@H](NC(=O)OCc1ccccc1)C(C)C)C(=O)CF [zVAD-fmk] (Cbz-Val-Ala-Asp(OMe)-CH2F)
GSK3β
  blockade of CD95-induced GSK3β phosphorylation/inhibition: did not prevent GSK3β phosphorylation; also recorded: did not interfere with α-Apo-1 (2 μg/ml)-induced inhibition of GSK3β
GSK3β; listed as zVAD.fmk
  blockade of CD95-induced GSK3β phosphorylation/inhibition: did not block ser9 phosphorylation of GSK3β

## APG101: fusion protein of the extracellular domain of the human CD95-receptor with human Fc, SEQ ID NO:1
[1]
  antagonism of CD95L-T4-induced apoptosis: antagonizes the apoptosis inducing effect of CD95L; also recorded: antagonized by APG101 in a dose dependent manner
[1]; listed as AP-G101
  antagonism of CD95L-T4-induced apoptosis: antagonizes the apoptosis inducing activity of CD95L-T4
